Broadly, the Ki is the equilibrium dissociation constant of an inhibitor or competing ligand from its target. As usually defined, the melting point is the temperature, or range, at which the solid turns liquid.

The values below come from US7125900B2, “Inhibitors of 11-β-hydroxy steroid dehydrogenase type 1” (Biovitrum AB, priority 2000, dated 2006).

Data set [1] deals with T1, human 11-β-HSD1 enzyme (Homo sapiens, UniProt P28845).
T1 construct: made in house; host or cells: Pichia pastoris
Description: human 11-β-HSD1 enzyme assay (scintillation proximity assay). It counts as biochemical. As to conditions: human 11-β-HSD1 expressed in Pichia pastoris; Ki calculated from IC50 by Cheng-Prusoff. The source says:
[1, 2(n)—^3H]-cortisone was purchased from Amersham Pharmacia Biotech. Anti-cortisol monoclonal mouse antibody, clone 6D6.7 was obtained from Immunotech and Scintillation proximity assay (SPA) beads coated with monoclonal antimouse antibodies were from Amersham Pharmacia Biotech. NADPH, tetrasodium salt was from Calbiochem and glucose-6-phosphate (G-6-P) was supplied by Sigma. The human 11-β-hydroxysteroid dehydrogenase type-I enzyme (11-β-HSD1) was expressed in Pichia pastoris. 18-β-glycyrrhetinic acid (GA) was obtained from Sigma. The serial dilutions of the compounds were performed on a Tecan Genesis RSP 150. Compounds to be tested were dissolved in DMSO (1 mM) and diluted in 50 mM Tris-HCl, pH 7.2 containing 1 mM EDTA.
The multiplication of plates was done on a WallacQuadra. The amount of the product [^3H]-cortisol, bound to the beads was determined in a Packard, Top Count microplate liquid scintillation counter.
The 11-β-HSD1 enzyme assay was carried out in 96 well microtiter plates (Packard, Optiplate) in a total well volume of 220 μL and contained 30 mM Tris-HCl, pH 7.2 with 1 mM EDTA, a substrate mixture tritiated Cortisone/NADPH (175 nM/181 μM), G-6-P (1 mM) and inhibitors in serial dilutions (9 to 0.15 μM). Reactions were initiated by the addition of human 11-β-HSD1, either as Pichia pastoris cell homogenate or microsomes prepared from Pichia pastoris (the final amount of enzyme used was varied between 0.057 to 0.11 mg/mL). Following mixing, the plates were shaken for 30 to 45 minutes at room temperature. The reactions were terminated with 10 μL 1 mM GA stop solution. Monoclonal mouse antibody was then added (10 μL of 4 μM) followed by 100 μL of SPA beads (suspended according to the manufacturers instructions). Appropriate controls were set up by omitting the 11-β-HSD1 to obtain the non-specific binding (NSB) value.
The plates were covered with plastic film and incubated on a shaker for 30 minutes, at room temperature, before counting. The amount of [^3H]-cortisol, bound to the beads was determined in a microplate liquid scintillation counter.
The calculation of the Ki values for the inhibitors was performed by use of Activity Base. The Ki value is calculated from IC50 and the Km value is calculated using the Cheng Prushoff equation (with reversible inhibition that follows the Michaelis-Menten equation): […] [Cheng, Y. C.; Prushoff, W. H. Biochem. Pharmacol. 1973, 22, 3099-3108]. The IC50 is measured experimentally in an assay wherein the decrease of the turnover of cortisone to cortisol is dependent on the inhibition potential of each substance. […] Illustrative of the invention, the following Ki values have been determined in the human 11-β-HSD1 enzyme assay (see Table 1): […]

For data set [2], the system named is bone nodule formation. As to conditions: cited from earlier work.

T1 sequence (P28845 whole entry): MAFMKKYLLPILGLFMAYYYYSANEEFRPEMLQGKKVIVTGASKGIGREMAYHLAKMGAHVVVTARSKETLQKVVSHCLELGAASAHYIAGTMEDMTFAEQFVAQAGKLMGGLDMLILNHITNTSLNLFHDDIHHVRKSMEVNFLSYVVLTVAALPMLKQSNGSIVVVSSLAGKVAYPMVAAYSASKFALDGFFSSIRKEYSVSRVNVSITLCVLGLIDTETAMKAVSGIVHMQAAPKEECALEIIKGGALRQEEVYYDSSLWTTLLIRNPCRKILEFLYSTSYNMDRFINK

In the case of `C=Cc1csc(NS(=O)(=O)c2cccc(Cl)c2C)n1` [Example 18, 3-Chloro-2-methyl-N-(4-vinyl-1,3-thiazol-2-yl)benzenesulfonamide], the Ki in data set [1] is 90 nM.

`CCCc1csc(NS(=O)(=O)c2cccc(Cl)c2C)n1` [Example 11, 3-Chloro-2-methyl-N-(4-propyl-1,3-thiazol-2-yl)benzenesulfonamide] displayed a melting point of 169 °C. Turning to `CC(=O)c1sc(NS(=O)(=O)c2ccc(Oc3cccc(Cl)c3C#N)cc2)nc1C` [Example 22, N-(5-acetyl-4-methyl-1,3-thiazol-2-yl)-4-(3-chloro-2-cyanophenoxy)benzenesulfonamide], the Ki in data set [1] was 108 nM.

Consider `Cc1c(Cl)cccc1S(=O)(=O)Nc1nc(C(C)(C)C)cs1` [Example 15, N-(4-Tert-butyl-1,3-thiazol-2-yl)-3-chloro-2-methylbenzenesulfonamide], for which the melting point turned out to be 178 °C. Take `CC1(C)[C@@H](OC(=O)CCC(=O)O)CC[C@]2(C)[C@H]3C(=O)C=C4[C@@H]5C[C@@](C)(C(=O)O)CC[C@]5(C)CC[C@@]4(C)[C@]3(C)CC[C@@H]12` [carbenoxolone]: in data set [2], the “negative glucocorticoid effect on bone nodule formation” value is “blocked”. As to `Cc1csc(NS(=O)(=O)c2cccc(Cl)c2C)n1` [Example 3, 3-Chloro-2-methyl-N-(4-methyl-1,3-thiazol-2-yl)benzenesulfonamide], the Ki in data set [1] was 122 nM. The compound `Cc1nc(NS(=O)(=O)c2c(Cl)cc(Cl)cc2Cl)sc1CC(Cl)(Cl)Cl` [Example 6, 2,4,6-trichloro-N-[4-methyl-5-(2,2,2-trichloroethyl)-1,3-thiazol-2-yl]benzenesulfonamide] yielded a melting point of 228 to 229 °C. Further, the Ki in data set [1] is 123 nM.
